{
  "source": "paper PMC9233675",
  "about": "“Ru(II) photocages enable precise control over enzyme activity with red light” (Nature Communications, 2022)",
  "key": {"[1]": {"details": "human, microsomes"}, "[2]": {"details": "rat, microsomes"}, "[3]": {"details": "mouse, microsomes"}, "[4]": {"assay": "Irradiation-induced 1O2 production (Singlet Oxygen Sensor Green assay)", "type": "physicochemical", "details": "sheet S27; triplicate columns; DMSO control about 0.9", "text": "Some Ru(II) complexes can generate singlet oxygen when photoexcited, a feature that has been applied to the selective photoinactivation of proteins. In this approach, the Ru(II) system is conjugated to a peptide that is a specific ligand for the protein target; binding of the peptide to the protein ensures close proximity of the Ru(II) center and thus, upon photoexcitation, the generation of a high local concentration of singlet oxygen. […] As very little of this reactive oxygen species was generated, inactivation of the CYP enzymes by this process appears unlikely.\nSupplementary Figure 27. Determination of irradiation-induced 1O2 production with 660 nm light (1 hr = 58.7 J/cm2)\nusing the Singlet Oxygen Sensor Green assay. […]"}, "CYP19A1 [5]": {"biological_target": "T1, CYP19A1 (Homo sapiens, UniProt P11511)", "T1 sequence (P11511 1-503)": "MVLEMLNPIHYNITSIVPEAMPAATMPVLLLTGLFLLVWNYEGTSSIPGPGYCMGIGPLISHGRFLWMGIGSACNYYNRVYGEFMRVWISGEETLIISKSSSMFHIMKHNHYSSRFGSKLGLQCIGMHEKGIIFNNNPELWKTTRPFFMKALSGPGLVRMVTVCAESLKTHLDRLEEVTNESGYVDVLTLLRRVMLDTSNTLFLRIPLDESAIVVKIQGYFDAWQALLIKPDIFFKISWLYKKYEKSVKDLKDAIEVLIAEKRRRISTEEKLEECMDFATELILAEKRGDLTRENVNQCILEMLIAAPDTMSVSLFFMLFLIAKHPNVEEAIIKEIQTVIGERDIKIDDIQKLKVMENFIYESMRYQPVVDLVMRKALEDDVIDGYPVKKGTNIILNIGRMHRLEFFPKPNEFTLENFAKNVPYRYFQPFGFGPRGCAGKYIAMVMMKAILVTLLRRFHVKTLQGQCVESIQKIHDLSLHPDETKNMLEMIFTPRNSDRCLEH", "assay": "In cell activity assay for CYP19A1 (dibenzylfluorescein conversion, HEK293 T-Rex cells)", "type": "cell-based", "details": "concentrations up to 30 μM, in the dark and following irradiation to form 7", "experimental": "Thus, the activity against CYP19A1 was evaluated using a recently developed in-cell fluorometric assay.\nREE or DBF was added as described above."}, "HEK293 T-Rex cell line": {"system": "HEK293 T-Rex cell line", "assay": "Cellular viability (resazurin to resorufin, 72 h)", "type": "cell-based, human", "details": "Supplementary Fig. 24d", "experimental": "The cells were >70% viable at 72 h with 10 μM compound, as quantified by metabolically active cells determined by the conversion of resazurin to resorufin (Supplementary Figs. 18–20).\nThe parental HEK T-Rex cell line was maintained as above, in the absence of Zeocin. Compounds were serially diluted in media, and the cells were dosed from 0–30 μM compound, and then incubated at 37 °C (n = 3). […] The cells were incubated with the compound in the dark for 30 min prior to light exposure, using the same parameters as in the enzyme activity assay, and then treated as above."}, "[6]": {"assay": "Stability of complexes at 37 °C in the dark (HPLC, UV/Vis)", "type": "physicochemical", "experimental": "The stability of each complex was assessed over 24 h under aqueous conditions at 37 °C (Supplementary Figs. 12–15). […] Given the potency of the caged inhibitor, thermal stability is of critical importance, making complex 6 the preferred photocaged candidate.\nOpti-MEM with 2% fetal bovine serum (right) at 37 °C in the dark over the course of 0 (blue line) to 24 h (black dashed line). Compounds were tested in triplicate (n = 3), the data for one replicate are presented. Complexes 4 and 5 slowly degraded in the experiment condition (see HPLC traces, Figures S13–14). The decrease in absorbance for complex 6 is explained by the slow aggregation of the compound in the 96-well plate.\n(1 picture or pasted object on this page, not shown here)\nSupplementary Figure 13. a HPLC chromatogram analysis of stability of 4 (50 µM in di-H2O) before (black dashed line, purity > 92 % ) and after incubation at 37 °C for 24 hours (red line). At 24 hours, 43 % of 4 was […]\nSupplementary Figure 14. HPLC chromatogram analysis of stability of 5 (50 µM in di-H2O) before (black dashed line, purity > 97 %) and after incubation at 37 °C for 24 hours (red line). At 24 hours, 50 % of 5 was observed […]\nSupplementary Figure 15. HPLC chromatogram analysis of stability of 6 (40 µM in di-H O : MeCN mixture (4:1), […]\nMeCN was added to reduce the aggregation) before (black dashed line, purity > 99.5 %) and after incubation at 37 °C for 24 hours. At 24 hours, less than 2 % degradation was observed (calculated by area, detection wavelength = […]\nSupplementary Figure 16. HPLC chromatogram analysis of stability of 6 (40 µM) in 5 % DMSO / di-H2O with a 100 μM GSH, b 100 μM imidazole and c acidic condition (pH = 1) after incubation at 37 °C for 72 hours. Less than […]\ndetection wavelength = 280 nm). […]\nimidazole and c acidic condition (pH = 1) after incubation at 37 °C for 72 hours. d At 72 hours less than 7 % degradation was observed by HPLC at pH = 1 (calculated by area, detection wavelength = 280 nm). Compounds were tested in triplicate (n = 3), the data for one replicate are presented."}, "[7]": {"assay": "Stability of compounds in human liver microsomes", "details": "for Remaining, % (T=60min): human, liver microsomes"}, "[8]": {"parameters": "method as in Scifinder", "details": "ref Scifinder; cited from earlier work"}, "CYP19A1 [9]": {"system": "CYP19A1", "parameters": "method as in PMID 9152599", "details": "cited from earlier work"}, "human isoform of CYP51": {"biological_target": "human isoform of CYP51", "parameters": "method as in PMID 23826084", "details": "cited from earlier work"}, "CYP3A4": {"system": "CYP3A4", "parameters": "method as in PMID 23018626", "details": "cited from earlier work"}, "fungal CYP51": {"biological_target": "fungal CYP51", "details": "read-out: Kd fungal CYP51; cited from earlier work"}, "[10]": {"assay": "Stability of compounds in rat liver microsomes"}, "[11]": {"assay": "Stability of compounds in mouse liver microsomes"}},
  "note": "Where “and” joins values, the source holds several entries; their conditions need not be identical. Equal entries are not always repeated. Where two headings read alike, the source gives them in different places.",
  "data": [
    {"smiles": "COc1ccc(/C=C/c2cc[n+]([Os-4]34([Cl])([n+]5ccccc5-c5cccc[n+]53)[n+]3ccccc3-c3cccc[n+]34)cn2)c(OC)c1.[Cl-]", "note": "[[Os(bpy)2(2)Cl]Cl]", "values": [
      {"measurement": "CLint(mic)", "setting": "[1]", "value": "< 9.6", "unit": "µL/min/mg"},
      {"measurement": "T1/2", "setting": "[1]", "value": "> 2.42", "unit": "h"},
      {"measurement": "Remaining, % (NCF=60min)", "setting": "[1]; 1 h", "value": 107, "unit": "%"},
      {"measurement": "Remaining, % (T=60min)", "setting": "[1]; 1 h", "value": 78.4, "unit": "%"},
      {"measurement": "CLint(mic)", "setting": "[2]", "value": 16.9, "unit": "µL/min/mg"},
      {"measurement": "T1/2", "setting": "[2]", "value": 1.36, "unit": "h"},
      {"measurement": "Remaining, % (NCF=60min)", "setting": "[2]; 1 h", "value": 91.8, "unit": "%"},
      {"measurement": "Remaining, % (T=60min)", "setting": "[2]; 1 h", "value": 56.5, "unit": "%"},
      {"measurement": "CLint(mic)", "setting": "[3]", "value": "< 9.6", "unit": "µL/min/mg"},
      {"measurement": "T1/2", "setting": "[3]", "value": "> 2.42", "unit": "h"},
      {"measurement": "Remaining, % (NCF=60min)", "setting": "[3]; 1 h", "value": 75.9, "unit": "%"},
      {"measurement": "Remaining, % (T=60min)", "setting": "[3]; 1 h", "value": 71.8, "unit": "%"}
    ]},
    {"smiles": "[Ru+2].c1ccc(-c2ccccn2)nc1.c1ccc(-c2ccccn2)nc1.c1ccc(-c2ccccn2)nc1", "note": "[Ru(bpy)3, reference compound]", "values": [
      {"measurement": "irradiation-induced 1O2 production (Singlet Oxygen Sensor Green signal, relative)", "setting": "[4]", "value": "4.994 and 4.917 and 5.133"}
    ]},
    {"smiles": "O=C([O-])c1cc2[n+](c3ccccc13)[Ru-4]13([n+]4ccccc4)([n+]4ccccc4-c4cccc([n+]41)-c1cccc[n+]13)[n+]1c-2cc(C(=O)[O-])c2ccccc21", "note": "[Compound 8, [Ru(tpy)(bca)(pyridine)]]", "values": [
      {"measurement": "impact on any CYP (CYP19A1)", "setting": "CYP19A1 [5]", "value": "no impact"},
      {"measurement": "effect on cell health", "setting": "HEK293 T-Rex cell line", "value": "no effect"},
      {"measurement": "degradation at pH = 1", "setting": "[6]; 5 % DMSO / di-H2O, acidic condition (pH = 1), 37 °C, 72 hours", "value": "less than 7%"},
      {"measurement": "degradation over 72 h", "setting": "[6]; Supplementary Fig. 17", "value": "< 7", "unit": "%"},
      {"measurement": "irradiation-induced 1O2 production (Singlet Oxygen Sensor Green signal, relative)", "setting": "[4]", "value": "1.034 and 0.94 and 1.135"}
    ]},
    {"smiles": "O=C(O)Cc1ccccc1Nc1c(Cl)cccc1Cl", "note": "[Diclofenac, reference compound]", "values": [
      {"measurement": "Remaining, % (T=60min)", "setting": "[7]", "value": 0.0, "unit": "%"}
    ]},
    {"smiles": "Cc1ccncc1", "note": "[methyl pyridine]", "values": [
      {"measurement": "pKa", "setting": "[8]", "value": 5.9}
    ]},
    {"smiles": "CC(C)(C#N)c1cc(Cn2cncn2)cc(C(C)(C)C#N)c1", "note": "[Anastrozole, anastrozole]", "values": [
      {"measurement": "selectivity for CYP19A1 over liver CYPs", "setting": "CYP19A1 [9]", "value": "at least 500 fold"}
    ]},
    {"smiles": "CC(=O)N1CCN(c2ccc(OCC3COC(Cn4ccnc4)(c4ccc(Cl)cc4Cl)O3)cc2)CC1", "note": "(centres unmarked) [Ketoconazole, ketoconazole]", "values": [
      {"measurement": "Kd", "setting": "human isoform of CYP51", "value": 42, "unit": "nM"},
      {"measurement": "IC50", "setting": "CYP3A4", "value": "[…]"},
      {"measurement": "Kd", "setting": "fungal CYP51", "value": 27, "unit": "nM"}
    ]},
    {"smiles": "CCCCCCOC(C)c1c(C)c2cc3nc(c4c5[nH]c(cc6nc(cc1[nH]2)C(C)=C6CC)c(C)c5C(=O)C4)[C@@H](CCC(=O)O)[C@@H]3C", "note": "(some centres unmarked) [HPPH, reference compound]", "values": [
      {"measurement": "irradiation-induced 1O2 production (Singlet Oxygen Sensor Green signal, relative)", "setting": "[4]", "value": "4.8266 and 4.787 and 4.883"}
    ]},
    {"smiles": "C[C@]12CC[C@H]3[C@@H](CCC4=CC(=O)CC[C@@]43C)[C@@H]1CC[C@@H]2O", "note": "[Testosterone, reference compound]", "values": [
      {"measurement": "Remaining, % (NCF=60min)", "setting": "[10]; rat liver microsomes, no co-factor (no NADPH)", "value": 86.5, "unit": "%"},
      {"measurement": "Remaining, % (T=60min)", "setting": "[10]; rat, liver microsomes", "value": 0.8, "unit": "%"},
      {"measurement": "Remaining, % (NCF=60min)", "setting": "[7]; human liver microsomes, no co-factor (no NADPH)", "value": 82.5, "unit": "%"},
      {"measurement": "Remaining, % (T=60min)", "setting": "[7]", "value": 3.6, "unit": "%"},
      {"measurement": "Remaining, % (NCF=60min)", "setting": "[11]; mouse liver microsomes, no co-factor (no NADPH)", "value": 91.3, "unit": "%"},
      {"measurement": "Remaining, % (T=60min)", "setting": "[11]; mouse, liver microsomes", "value": 2.3, "unit": "%"}
    ]},
    {"smiles": "Cc1ccncn1", "note": "[methyl pyrimidine]", "values": [
      {"measurement": "pKa", "setting": "[8]", "value": 2.0}
    ]}
  ]
}
